From article doi:10.1101/2023.10.03.560722, “Drug Discovery in Low Data Regimes: Leveraging a Computational Pipeline for the Discovery of Novel SARS-CoV-2 Nsp14-MTase Inhibitors” (bioRxiv, 2024)
Like-named read-outs stand apart in the source and are kept apart here.

Columns and labels:
[1] = target: T1, SARS-CoV-2 nsp14 MTase (Severe acute respiratory syndrome coronavirus 2, UniProt P0DTD1); experiment: biochemical; format: biochemical; conditions: for nsp14 Inhibition % (100µM) Exp 1 / nsp14 Inhibition % (100µM) Exp 2: compound 100µM; for nsp14 Inhibition % (100µM) Exp 1: replicate experiment 1; for nsp14 Inhibition % (100µM) Exp 2: replicate experiment 2
[2] = target: T1, SARS-CoV-2 nsp14 MTase; conditions: inhibition of nsp14 methyltransferase activity; cited from earlier work

SMILES | nsp14 Inhibition % (100µM) Exp 1 [1] [%] | nsp14 Inhibition % (100µM) Exp 2 [1] [%] | also measured
NC(CCCNc1nc(O)c(-c2ccccc2)c(=O)[nH]1)C(=O)O (stereo not shown) [NSC132916] | −1 | −3 | –
O=C(O)/C=C\C(=O)NCC1CCC(CNC(=O)/C=C\C(=O)O)CC1 (stereo not shown) [NSC137050] | 6 | −1 | –
NS(=O)(=O)c1ccc(NC2OCC(O)C(O)C2O)cc1 (stereo not shown) [NSC158437] | 5 | 1 | –
Nc1ncnc2c1ncn2C1OC(C(=O)NCC(=O)O)C(O)C1O (stereo not shown) [NSC163444] | 9 | 5 | –
O=C(O)c1cc(=O)n(CCCCCCn2c(=O)cc(C(=O)O)[nH]c2=O)c(=O)[nH]1 [NSC232469] | 7 | −7 | –
O=P(O)(O)OC[C@H]1O[C@@H](n2cnc3c(NCc4ccccc4)ncnc32)[C@H](O)[C@@H]1O [NSC255523] | 59 | 33 | –
CC(C)=CCNc1ncnc2c1ncn2[C@@H]1O[C@H](COP(=O)(O)O)[C@@H](O)[C@H]1O [NSC268226] | 9 | 0 | –
Cn1c(=O)c2c(ncn2CCCNCC(O)c2ccc(O)c(CO)c2)n(C)c1=O (stereo not shown) [NSC293892] | 15 | 3 | –
CC(CCc1ccc2c(c1)OCO2)NCC(O)c1ccc(O)c(C(N)=O)c1 (stereo not shown) [NSC313453] | – | – | inhibition at 100 µM ([1]; read-out: nsp14 Inhibition % (100µM) Exp 1): 3%; inhibition at 100 µM ([1]; read-out: nsp14 Inhibition % (100µM) Exp 2): -5%
O=C(O)CCC(=O)NCC1CCCC(CNC(=O)CCC(=O)O)C1 (stereo not shown) [NSC317609] | 7 | 1 | –
O=P(O)(O)OC1OC(n2cnc3c(NCc4ccc(F)cc4)ncnc32)C(O)C1O (stereo not shown) [NSC330685] | 4 | 2 | –
O=C(O)C(Cc1ccc(O)cc1)NC(c1ccccc1)P(=O)(O)O (stereo not shown) [NSC377438] | 8 | −3 | –
NC(CSCCSCCSCC(N)C(=O)O)C(=O)O (stereo not shown) [NSC400718] | 89 | 88 | IC50 ([1]; nsp14 MTase activity, high-throughput screening follow-up, read-out: IC50): 38 µM
O=S(=O)(O)c1ccc(N=Nc2c(O)ccc3n[nH]nc23)cc1 [NSC400937] | 73 | 66 | –
O=c1ccn(C2OC(C(O)CO)C(O)C2O)c(=O)[nH]1 (stereo not shown) [NSC613624] | 4 | −1 | –
COc1cc(N=Nc2ccccc2C(=O)O)cc(/C=N/NNC(N)=S)c1O [NSC630814] | 84 | 82 | –
O=C1NC(=O)C(C(=O)C(=O)Nc2cccc(C(F)(F)F)c2)C(=O)N1 [NSC646375] | 26 | 20 | –
NC(CCCC(N)P(=O)(O)c1ccccc1)P(=O)(O)c1ccccc1 (stereo not shown) [NSC655184] | 7 | −11 | –
O=C(O)c1ccc(Nc2nc3ccccc3nc2C(=O)O)cc1 [NSC670682] | 50 | 54 | –
N#Cc1cn([C@@H]2O[C@H](CSCC[C@H](N)C(=O)O)C(O)[C@@H]2O)c2ncnc(N)c12 (stereo partly shown) [SS148] | – | – | IC50 [2]: 0.07 ± 0.006 µM
